Results from patent EP0363230A2, “Use of acetogenins in therapy as antiparasitic substances” (LA[…] Société anonyme dite:, priority 1988, dated 1990).

Legend:
cellules KB [1] = experiment: Cytostatic effect on KB cells (crystal violet, optical density at 590 nm); format: cell-based, humain; conditions: 3 days at 37°C, optical density at 590 nm versus control, ***/** = statistical significance
From the text: (§1) La toxicité a été évaluée par la mesure de la cytotoxicité et de la cytostase vis-à-vis de cellules KB selon une technique usuelle. L'activité antiparasitaire a été déterminée in vitro sur Leishmania donovani, promastigote selon un protocole opératoire décrit ci-après.
(§2) On fait appel à des cellules épithéliales KB provenant d'un carcinome oral épidermoïde humain obtenues selon H. EAGLE "Propagation in a fluid medium of a human epidermoid carcinoma strain KB (21811)", Proc. Soc. Exp. Biol. and Med., 89, pages 362-364, (1955) et commercialisées par la Société dite EUROBIO.
(§3) Le milieu de culture utilisé avait la composition suivante
(§4) L'ensemencement se fait en boîte de 12 cupules contenant chacune 2 ml du milieu. Le produit à tester est mis en solution dans le diméthylsulfoxyde (DMSO) et dilué par du milieu de culture. La solution ainsi obtenue est ajoutée au milieu de culture pour obtenir des concentrations en produit à tester de 5, 10, 20, 30, 40, et […] par ml de milieu. Les cellules sont ajoutées en même temps que la solution du produit à tester.
(§5) Le milieu ensemencé et ainsi traité est mis à l'étuve à 37°C pendant 3 jours. Après fixation des cellules par la méthode dite au cristal violet [selon la technique de R.J. GILLIER et al., "Determination of cell number in monolayer cultures", Analytical Biochemistry 159, pages 109-113, (1986)]. […]

[2] = tested on: Leishmania donovani, promastigote; experiment: Anti-Leishmania effect in vitro (growth inhibition of promastigotes, cell count); format: cell-based; conditions: for inhibition (I%): growth inhibition of Leishmania donovani promastigotes; for DI-50: dose of 50 % inhibition, 26°C; for DI-50 / DImax: Leishmania donovani LRC L52 promastigotes, 3 to 4 days; for DImax: dose of maximal measured inhibition
Procedure: as §1
On fait appel à une souche de Lieshmania donovani LRC L52 (de la collection OMS).
as §3
L'ensemencement se fait dans des boîtes de 24 cupules contenant chacune 500 µl de milieu. Le milieu est ensemencé par 500 000 promastigotes par cupule puis placé dans une étuve à CO₂ à 26°C pendant 3 à 4 heures.
Le produit à tester est ajouté en solution dans le DMSO à des concentrations variables sous un volume de 25 µl par cupule. Les boîtes ensemencées et traitées par le produit sont laissées à l'étuve pendant 3 à 4 jours.
La mesure de l'activité est effectuée par comptage des cellules à l'hémocytomètre, le nombre obtenu étant rapporté à un témoin dépourvu de produit (100 % de cellules, soit 0 % d'inhibition de croissance). Chaque manipulation est effectuée 2 fois.
Les résultats obtenus sont également consignés dans le tableau I ci-après où sont données les doses d'inhibition à 50 % (DI-50) et les doses d'inhibition maximale mesurées (DImax).

cellules KB [3] = experiment: Cytotoxic effect on KB cells (dose lethal for 100 % of cells); format: cell-based, humain; conditions: 3 days at 37°C, dose lethal for 100 % of cells (complete disappearance of the cell layer)
From the text: as §1, §2, §3, §4, §5

| SMILES | Cytostase (cellules KB [1]) | inhibition (I%) ([2]; DI = 10 µg.ml) [%] | DI-50 [2] | DImax [2] [µg·mL] | Cytotoxicité (cellules KB [3]) [µg·mL] | inhibition (I%) ([2]; DI = 20 µg.ml) [%] |
| --- | --- | --- | --- | --- | --- | --- |
| CCCCCCCCCC(O)CC1CCC(C2CCC(C(O)CCCC(O)CCCCCCC(O)CCC3=CC(C)OC3=O)O2)O1 (stereo not shown) [Ex 1, 2-[5-(2-hydroxyundécyl)-2-tétrahydrofurannyl]-5-[14-(5-méthyl-2-oxo-2,5-dihydro-3-furannyl)-1,5,12-trihydroxytétradécyl]-tétrahydrofuranne] | 20*** µg.ml | 100 | 2,5 µg.ml | 10 | 40 | – |
| CCCCCCCCCC(O)CC1CCC(C2CCC(C(O)CCCCCCCCCCC(O)CCC3=CC(C)OC3=O)O2)O1 (stereo not shown) [Ex 8, 2-[5-(2-hydroxyundécyl)-2-tétrahydrofurannyl]-5-[14-(5-méthyl-2-oxo-2,5-dihydro-3-furannyl)-1,12-dihydroxytétradécyl]-tétrahydrofuranne] | 20** µg.ml | – | >20 µg·mL | 20 | 40 | 11 |
